For this test, the target named is 3CL Protease (Severe acute respiratory syndrome coronavirus 2, UniProt P0DTD1). Nature of the test: 3CL Protease enzymatic activity assay (BPS Bioscience Assay Kit #78043-1, fluorescence). The test is classed as biochemical, SARS-CoV-2. The method, boiled down: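 SARS-CoV-2 3CL protease was preincubated with compound 30 min at room temperature in assay buffer with 1 mM DTT (≤1% DMSO), then 40 μM substrate added for 4 h at room temperature. Fluorescence at 360/460 nm, blank-subtracted; IC50 from % inhibition, with GC376 as inhibitor control.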

Where [1] appears, read: Table A, 30 min preincubation, 40 μM substrate, 4 hours at room temperature, read-out: IC50, nM (3CL Protease enzymatic activity).

Where two headings read alike, the source gives them in different places.

As a reminder, the IC50 is the concentration that inhibits the measured activity by half.

In the case of `Cc1ccc2[nH]c(=O)c(C[C@@H](C#N)NC(=O)[C@@H]3[C@@H]4[C@H](CN3C(=O)[C@@H](NC(=O)C(F)(F)F)C(C)(C)C)C4(C)C)c(C)c2c1` [Compound 178, (1R,2S,5S)—N—((S)-1-Cyano-2-(4,6-dimethyl-2-oxo-1,2-dihydroquinolin-3-yl)-ethyl)-3-((S)-3,3-dimethyl-2-(2,2,2-trifluoroacetamido)butanoyl)-6,6-dimethyl-3-azabicyclo[3.1.0]hexane-2-carboxamide], the IC50 under setting [1] was in the range of 100 to 250 nM. As to `COc1cc2cc(C[C@@H](C#N)NC(=O)[C@@H]3[C@@H]4[C@H](CN3C(=O)[C@@H](NC(=O)C(F)(F)F)C(C)(C)C)C4(C)C)c(=O)[nH]c2cc1C` [Compound 179], under setting [1], the IC50 lay within 50 to 100 nM. `CC(C)(C)[C@H](NC(=O)C(F)(F)F)C(=O)N1C[C@H]2[C@@H]([C@H]1C(=O)NC(C#N)Cc1cc3ccccc3[nH]c1=O)C2(C)C` (stereo partly drawn) [Compound 182, (1R,2S,5S)-N-[1-cyano-2-(2-oxo-1H-quinolin-3-yl)ethyl]-3-[(2S)-3,3-dimethyl-2-[(2,2,2-trifluoroacetyl)amino]butanoyl]-6,6-dimethyl-3-azabicyclo[3.1.0]hexane-2-carboxamide]: the IC50 under setting [1] was less than 50 nM.

Regarding `Cc1ccc2[nH]c(=O)c(C[C@@H](C#N)N(C)C(=O)[C@@H]3[C@@H]4[C@H](CN3C(=O)[C@@H](NC(=O)C(F)(F)F)C(C)(C)C)C4(C)C)cc2c1` [Compound 183, (1R,2S,5S)-N-[(1S)-1-cyano-2-(6-methyl-2-oxo-1H-quinolin-3-yl)ethyl]-3-[(2S)-3,3-dimethyl-2-[(2,2,2-trifluoroacetyl)amino]butanoyl]-N,6,6-trimethyl-3-azabicyclo[3.1.0]hexane-2-carboxamide], the IC50 under setting [1] is not below 1000 nM. Still for that read-out and setting: then `CC(C)(C)[C@H](NC(=O)C(F)(F)F)C(=O)N1C[C@H]2[C@@H]([C@H]1C(=O)N[C@H](C#N)Cc1nc3ccccc3[nH]c1=O)C2(C)C` [Compound 185, (1R,2S,5S)—N-[(1S)-1-Cyano-2-(3-oxo-4H-quinoxalin-2-yl)ethyl]-3-[(2S)-3,3-dimethyl-2-[(2,2,2-trifluoroacetyl)amino]butanoyl]-6,6-dimethyl-3-azabicyclo[3.1.0]hexane-2-carboxamide], with less than 50 nM; and `CC(C)(C)[C@H](NC(=O)C(F)(F)F)C(=O)N1C[C@H]2[C@@H]([C@H]1C(=O)N[C@@H](C#N)Cc1nc3ccccc3[nH]c1=O)C2(C)C` [Compound 186, (1R,2S,5S)—N-[(1R)-1-cyano-2-(3-oxo-4H-quinoxalin-2-yl)ethyl]-3-[(2S)-3,3-dimethyl-2-[(2,2,2-trifluoroacetyl)amino]butanoyl]-6,6-dimethyl-3-azabicyclo[3.1.0]hexane-2-carboxamide], with less than 50 nM. On to `CN1c2ccccc2NC(=O)C1CC(C#N)NC(=O)[C@@H]1[C@@H]2[C@H](CN1C(=O)[C@@H](NC(=O)C(F)(F)F)C(C)(C)C)C2(C)C` (stereo partly drawn) [Compound 187, (1R,2S,5S)—N-[1-Cyano-2-(1-methyl-3-oxo-2,4-dihydroquinoxalin-2-yl)ethyl]-3-[(2S)-3,3-dimethyl-2-[(2,2,2-trifluoroacetyl)amino]butanoyl]-6,6-dimethyl-3-azabicyclo[3.1.0]hexane-2-carboxamide], for which the IC50 under setting [1] is not below 1000 nM. Take `CC(C)(C)[C@H](NS(C)(=O)=O)C(=O)N1C[C@H]2[C@@H]([C@H]1C(=O)N[C@H](C#N)Cc1cc3cnccc3[nH]c1=O)C2(C)C` [Compound 188, (1R,2S,5S)—N—((S)-1-Cyano-2-(2-oxo-1,2-dihydro-1,6-naphthyridin-3-yl)ethyl)-3-((S)-3,3-dimethyl-2-(methylsulfonamido)butanoyl)-6,6-dimethyl-3-azabicyclo[3.1.0]hexane-2-carboxamide]: under setting [1], the IC50 was less than 50 nM. For the molecule `CC(C)(C)[C@H](NS(C)(=O)=O)C(=O)N1C[C@H]2[C@@H]([C@H]1C(=O)N[C@@H](C#N)Cc1cc3cnccc3[nH]c1=O)C2(C)C` [Compound 189, (1R,2S,5S)—N—((R)-1-Cyano-2-(2-oxo-1,2-dihydro-1,6-naphthyridin-3-yl)ethyl)-3-((S)-3,3-dimethyl-2-(methylsulfonamido)butanoyl)-6,6-dimethyl-3-azabicyclo[3.1.0]hexane-2-carboxamide], under setting [1], the half-maximal inhibitory concentration (IC50) was not below 1000 nM. In the case of `Cc1ccc2[nH]c(=O)c(C[C@@H](C#N)NC(=O)[C@@H]3[C@@H]4[C@H](CN3C(=O)Cc3cc(C(F)(F)F)n[nH]3)C4(C)C)cc2c1` [Compound 191, (1R,2S,5S)—N—((S)-1-Cyano-2-(6-methyl-2-oxo-1,2-dihydroquinolin-3-yl)ethyl)-6,6-dimethyl-3-(2-(3-(trifluoromethyl)-1H-pyrazol-5-yl)acetyl)-3-azabicyclo[3.1.0]hexane-2-carboxamide], under setting [1], the IC50 was not below 1000 nM.

With `Cc1ccc2[nH]c(=O)c(C[C@@H](C#N)NC(=O)[C@@H]3[C@@H]4[C@H](CN3C(=O)Cc3cc(C)no3)C4(C)C)cc2c1` [Compound 192, (1R,2S,5S)—N—((S)-1-Cyano-2-(6-methyl-2-oxo-1,2-dihydroquinolin-3-yl)ethyl)-6,6-dimethyl-3-(2-(3-methylisoxazol-5-yl)acetyl)-3-azabicyclo[3.1.0]hexane-2-carboxamide], under setting [1], the IC50 was not below 1000 nM. With `Cc1ccc2[nH]c(=O)c(C[C@@H](C#N)NC(=O)[C@@H]3[C@@H]4[C@H](CN3C(=O)Cc3cc(C(F)(F)F)no3)C4(C)C)cc2c1` [Compound 193, (1R,2S,5S)—N—((S)-1-Cyano-2-(6-methyl-2-oxo-1,2-dihydroquinolin-3-yl)ethyl)-6,6-dimethyl-3-(2-(3-(trifluoromethyl)isoxazol-5-yl)acetyl)-3-azabicyclo[3.1.0]hexane-2-carboxamide], the IC50 under setting [1] was not below 1000 nM. `Cc1ccc2[nH]c(=O)c(C[C@@H](C#N)NC(=O)[C@@H]3[C@@H]4[C@H](CN3C(=O)C(C)c3cc(C(F)(F)F)n[nH]3)C4(C)C)cc2c1` (stereo partly drawn) [Compound 194]: the IC50 under setting [1] was not below 1000 nM.

With `Cc1ccc2[nH]c(=O)c(C[C@@H](C#N)NC(=O)[C@@H]3[C@@H]4[C@H](CN3C(=O)[C@@H](NS(=O)(=O)CC(F)(F)F)C(C)(C)C)C4(C)C)cc2c1` [Compound 195, (1R,2S,5S)—N—((S)-1-Cyano-2-(6-methyl-2-oxo-1,2-dihydroquinolin-3-yl)ethyl)-3-((S)-3,3-dimethyl-2-((2,2,2-trifluoroethyl)sulfonamido)butanoyl)-6,6-dimethyl-3-azabicyclo[3.1.0]hexane-2-carboxamide], the IC50 under setting [1] was less than 50 nM. Same read-out and setting: then `COc1cccc2oc(C(=O)N3C[C@H]4[C@@H]([C@H]3C(=O)N[C@H](C#N)Cc3cc5cc(C)ccc5[nH]c3=O)C4(C)C)cc12` [Compound 196, (1R,2S,5S)—N—((S)-1-Cyano-2-(6-methyl-2-oxo-1,2-dihydroquinolin-3-yl)ethyl)-3-(4-methoxybenzofuran-2-carbonyl)-6,6-dimethyl-3-azabicyclo[3.1.0]hexane-2-carboxamide], with not below 1000 nM; and `Cc1ccc2[nH]c(=O)c(C[C@@H](C#N)NC(=O)C3C[C@H]4OCC[C@H]4N3C(=O)[C@@H](NC(=O)OCc3ccccc3)C(C)(C)C)cc2c1` (stereo partly drawn) [Compound 197, Benzyl ((2S)-1-((3aR,6aR)-5-(((S)-1-cyano-2-(6-methyl-2-oxo-1,2-dihydroquinolin-3-yl)ethyl)carbamoyl)hexahydro-4H-furo[3,2-b]pyrrol-4-yl)-3,3-dimethyl-1-oxobutan-2-yl)carbamate], with not below 1000 nM; and `Cc1ccc2[nH]c(=O)c(C[C@@H](C#N)NC(=O)C3C[C@H]4OCC[C@H]4N3C(=O)[C@@H](NC(=O)C(F)(F)F)C(C)(C)C)cc2c1` (stereo partly drawn) [Compound 198, (3aR,6aR)—N—((S)-1-Cyano-2-(6-methyl-2-oxo-1,2-dihydroquinolin-3-yl)ethyl)-4-((S)-3,3-dimethyl-2-(2,2,2-trifluoroacetamido)butanoyl)hexahydro-2H-furo[3,2-b]pyrrole-5-carboxamide], with not below 1000 nM. For `Cc1ccc2c(c1)CC(CC(C#N)NC(=O)[C@@H]1[C@@H]3[C@H](CN1C(=O)[C@@H](NC(=O)C(F)(F)F)C(C)(C)C)C3(C)C)C(=O)N2` (stereo partly drawn) [Compound 199, (1R,2S,5S)—N-[1-Cyano-2-(6-methyl-2-oxo-3,4-dihydro-1H-quinolin-3-yl)ethyl]-3-[(2S)-3,3-dimethyl-2-[(2,2,2-trifluoroacetyl)amino]butanoyl]-6,6-dimethyl-3-azabicyclo[3.1.0]hexane-2-carboxamide], the IC50 under setting [1] is less than 50 nM. In the case of `Cc1ccc2[nH]c(=O)c(CC(C#N)N(C)C(=O)[C@@H]3[C@H]4[C@H](CN3C(=O)[C@@H](NC(=O)C(F)(F)F)C(C)(C)C)C4(C)C)cc2c1` (stereo partly drawn) [Compound 205, (1S,2S,5S)-N-[1-cyano-2-(6-methyl-2-oxo-1H-quinolin-3-yl)ethyl]-3-[(2S)-3,3-dimethyl-2-[(2,2,2-trifluoroacetyl)amino]butanoyl]-N,6,6-trimethyl-3-azabicyclo[3.1.0]hexane-2-carboxamide], under setting [1], the IC50 is not below 1000 nM. `Cc1ccc2[nH]c(=O)c(C[C@@H](C#N)NC(=O)[C@H](Cc3ccccc3)N(C)C(=O)[C@@H](NC(=O)C(F)(F)F)C(C)(C)C)cc2c1` [Compound 206, (2S)—N-[(1S)-1-benzyl-2-[[(1S)-1-cyano-2-(6-methyl-2-oxo-1H-quinolin-3-yl)ethyl]amino]-2-oxo-ethyl]-N,3,3-trimethyl-2-[(2,2,2-trifluoroacetyl)amino]butanamide]: the IC50 under setting [1] was not below 1000 nM. In the case of `CC(C)(C)[C@H](NC(=O)C(F)(F)F)C(=O)N1C[C@H]2[C@@H]([C@H]1C(=O)N[C@H](C#N)C[C@@H]1CCCNC1=O)C2(C)C` [K, reference compound], under “Table B, comparison with known compound K, read-out: IC50, nM (3CL Protease enzymatic activity, comparative data)”, the half-maximal inhibitory concentration (IC50) was found to be 1290 nM.

Source of the values: patent US20260015337A1 (Trawsfynydd Therapeutics, Inc., priority 2022, published 2026).
